Biological target: recombinant mTOR (Homo sapiens, UniProt P42345)
Assay: In Vitro mTOR Kinase Assay (Echo), Test (a)(ii) (AlphaScreen)
Format: biochemical
Conditions: Echo acoustic dispensing
Protocol: (a)(ii) In Vitro mTOR Kinase Assay (Echo)
The assay used AlphaScreen technology (Gray et al., Analytical Biochemistry, 2003, 313: 234-245) to determine the ability of test compounds to inhibit phosphorylation by recombinant mTOR.
The HEK293 FLAG-tagged mTOR (1362-2549) stable cell line was routinely maintained at 37° C. with 5% CO2 up to a confluency of 70-90% in Dulbecco's modified Eagle's growth medium (DMEM; Invitrogen Limited, Paisley, UK Catalogue No. 41966-029) containing 10% heat-inactivated foetal calf serum (FCS; Sigma, Poole, Dorset, UK, Catalogue No. F0392), 1% L-glutamine (Gibco, Catalogue No. 25030-024) and 2 mg/ml Geneticin (G418 sulfate; Invitrogen Limited, UK Catalogue No. 10131-027). Following expression in the mammalian HEK293 cell line, expressed protein was purified using the FLAG epitope tag using standard purification techniques.
Aliquots ([…]) of each compound dilution were acoustically […] using a Labcyte Echo 550 into a well of a Greiner 384-well low volume (LV) white polystyrene plate (Greiner Bio-one). A […] mixture of recombinant purified mTOR enzyme, 1 μM biotinylated peptide substrate (Biotin-Ahx-[…]NH2; Bachem UK Ltd), ATP (20 μM) and a buffer solution [comprising Tris-HCl pH7.4 buffer (50 mM), EGTA (0.1 mM), bovine serum albumin (0.5 mg/mL), DTT (1.25 mM) and manganese chloride (10 mM)] was incubated at room temperature for […].
These assay solutions were incubated for 2 hours at room temperature.
Each reaction was stopped by the addition of […] of a mixture of EDTA (50 mM), bovine serum albumin (BSA; 0.5 mg/mL) and Tris-HCl pH7.4 buffer (50 mM) containing
p70 S6 Kinase (T389) 1A5 Monoclonal Antibody (Cell Signalling Technology, Catalogue No. 9206B) and AlphaScreen Streptavidin donor and Protein A acceptor beads (200 ng; Perkin Elmer, Catalogue No. 6760002B and 6760137R respectively) were added and the assay plates were left overnight at room temperature in the dark. The resultant signals arising from laser light excitation at 680 nm were read using a Packard Envision instrument.
The phosphorylated biotinylated peptide that is associated with AlphaScreen Streptavidin donor beads forms a complex with the p70 S6 Kinase (T389) 1A5 Monoclonal Antibody that is associated with Alphascreen Protein A acceptor beads. Upon laser light excitation at 680 nm, the donor bead : acceptor bead complex produces a signal that can be measured. Accordingly, the presence of mTOR kinase activity results in an assay signal. In the presence of an mTOR kinase inhibitor, signal strength is reduced. mTOR enzyme inhibition for a given test compound was expressed as an IC50 value.

recombinant mTOR, sequence (P42345 1362-2549): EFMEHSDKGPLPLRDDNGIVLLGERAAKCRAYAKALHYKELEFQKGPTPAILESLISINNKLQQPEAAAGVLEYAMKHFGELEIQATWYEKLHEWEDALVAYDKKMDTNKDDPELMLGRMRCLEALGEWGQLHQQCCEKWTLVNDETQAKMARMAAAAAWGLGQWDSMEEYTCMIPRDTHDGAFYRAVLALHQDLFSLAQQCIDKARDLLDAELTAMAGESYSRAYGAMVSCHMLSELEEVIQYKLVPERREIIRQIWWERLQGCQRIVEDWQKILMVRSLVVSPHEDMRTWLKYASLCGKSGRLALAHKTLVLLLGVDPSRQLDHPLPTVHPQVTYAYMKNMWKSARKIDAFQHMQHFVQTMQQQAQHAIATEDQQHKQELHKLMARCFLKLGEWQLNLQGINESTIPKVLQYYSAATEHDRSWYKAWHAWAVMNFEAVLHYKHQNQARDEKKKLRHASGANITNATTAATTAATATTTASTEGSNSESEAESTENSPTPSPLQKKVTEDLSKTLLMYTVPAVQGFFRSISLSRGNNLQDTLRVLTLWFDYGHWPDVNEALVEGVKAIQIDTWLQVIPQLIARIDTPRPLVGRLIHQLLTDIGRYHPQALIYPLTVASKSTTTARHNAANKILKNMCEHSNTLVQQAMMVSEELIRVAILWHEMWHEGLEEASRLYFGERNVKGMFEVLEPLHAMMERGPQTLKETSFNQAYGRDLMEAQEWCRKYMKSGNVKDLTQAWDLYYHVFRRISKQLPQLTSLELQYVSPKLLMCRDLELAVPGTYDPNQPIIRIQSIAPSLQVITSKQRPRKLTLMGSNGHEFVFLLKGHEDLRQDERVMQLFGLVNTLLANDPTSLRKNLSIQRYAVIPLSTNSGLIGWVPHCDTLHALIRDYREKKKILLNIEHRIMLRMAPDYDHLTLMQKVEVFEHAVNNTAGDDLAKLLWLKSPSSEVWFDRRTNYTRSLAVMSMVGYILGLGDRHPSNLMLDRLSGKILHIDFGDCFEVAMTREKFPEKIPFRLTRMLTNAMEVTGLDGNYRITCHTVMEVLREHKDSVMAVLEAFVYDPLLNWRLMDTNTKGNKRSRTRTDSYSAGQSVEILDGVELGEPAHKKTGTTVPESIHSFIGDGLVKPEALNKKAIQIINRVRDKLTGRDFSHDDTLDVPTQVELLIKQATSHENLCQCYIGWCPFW

IC50 [nM]	Structure (SMILES)
17.7	CCNC(=S)Nc1ccc(-c2nc(CS(C)(=O)=O)cc(N3CCOC[C@@H]3C)n2)cc1 [Example 1a, 3-ethyl-1-[4-[4-[(3S)-3-methylmorpholin-4-yl]-6-(methylsulfonylmethyl)pyrimidin-2-yl]phenyl]thiourea]
154	CNC(=S)Nc1ccc(-c2nc(N3CCOC[C@@H]3C)cc(C(C)(C)S(=O)(=O)CCCO)n2)cc1 [Example 4b, 1-[4-[4-[2-(3-hydroxypropylsulfonyl)propan-2-yl]-6-[(3S)-3-methylmorpholin-4-yl]pyrimidin-2-yl]phenyl]-3-methylthiourea]
7.9	C[C@H]1COCCN1c1cc(C(C)(C)O)nc(-c2ccc(NC(=S)NCCO)cc2)n1 [Example 5, 3-(2-Hydroxyethyl)-1-[4-[4-(2-hydroxypropan-2-yl)-6-[(3S)-3-methylmorpholin-4-yl]pyrimidin-2-yl]phenyl]thiourea]
11	CNC(=S)Nc1ccc(-c2nc(N3CCOC[C@@H]3C)cc(C(C)(C)S(=O)(=O)c3ccccc3)n2)cc1 [Example 3, 1-[4-[4-[2-(Benzenesulfonyl)propan-2-yl]-6-[(3S)-3-methylmorpholin-4-yl]pyrimidin-2-yl]phenyl]-3-methylthiourea]
68.8	COc1ccc(NC(=S)Nc2ccc(-c3nc(CS(C)(=O)=O)cc(N4CCOC[C@@H]4C)n3)cc2)cc1 [Example 1c, 3-(4-methoxyphenyl)-1-[4-[4-[(3S)-3-methylmorpholin-4-yl]-6-(methylsulfonylmethyl)pyrimidin-2-yl]phenyl]thiourea]
37.4	CCNC(=S)Nc1ccc(-c2nc(N3CCOC[C@@H]3C)cc(C(C)(C)O)n2)cc1 [Example 5c, 3-ethyl-1-[4-[4-(2-hydroxypropan-2-yl)-6-[(3S)-3-methylmorpholin-4-yl]pyrimidin-2-yl]phenyl]thiourea]
15.5	C[C@H]1COCCN1c1cc(C(C)(C)S(=O)(=O)CCCO)nc(-c2ccc(NC(=S)NCCO)cc2)n1 [Example 4a, 3-(2-hydroxyethyl)-1-[4-[4-[2-(3-hydroxypropylsulfonyl)propan-2-yl]-6-[(3S)-3-methylmorpholin-4-yl]pyrimidin-2-yl]phenyl]thiourea]
19.7	C[C@H]1COCCN1c1cc(CS(C)(=O)=O)nc(-c2ccc(NC(=S)NC3CC3)cc2)n1 [Example 1, 3-Cyclopropyl-1-[4-[4-[(3S)-3-methylmorpholin-4-yl]-6-(methylsulfonylmethyl)pyrimidin-2-yl]phenyl]thiourea]
12.4	CCNC(=S)Nc1ccc(-c2nc(N3CCOC[C@@H]3C)cc(C(C)(C)S(=O)(=O)c3ccccc3)n2)cc1 [Example 3b, 1-[4-[4-[2-(benzenesulfonyl)propan-2-yl]-6-[(3S)-3-methylmorpholin-4-yl]pyrimidin-2-yl]phenyl]-3-ethylthiourea]
6.8	CCNC(=S)Nc1ccc(-c2nc(N3CCOC[C@@H]3C)cc(C(C)(C)S(C)(=O)=O)n2)cc1 [Example 2b, 3-ethyl-1-[4-[4-[(3S)-3-methylmorpholin-4-yl]-6-(2-methylsulfonylpropan-2-yl)pyrimidin-2-yl]phenyl]thiourea]
36.7	CNC(=S)Nc1ccc(-c2nc(N3CCOC[C@@H]3C)cc(C(C)(C)O)n2)cc1 [Example 5a, 1-[4-[4-(2-hydroxypropan-2-yl)-6-[(3S)-3-methylmorpholin-4-yl]pyrimidin-2-yl]phenyl]-3-methylthiourea]
5.1	CNC(=S)Nc1ccc(-c2nc(N3CCOC[C@@H]3C)cc(C(C)(C)S(C)(=O)=O)n2)cc1 [Example 2a, 3-methyl-1-[4-[4-[(3S)-3-methylmorpholin-4-yl]-6-(2-methylsulfonylpropan-2-yl)pyrimidin-2-yl]phenyl]thiourea]
305	C[C@H]1COCCN1c1cc(C(C)(C)S(C)(=O)=O)nc(-c2ccc(NC(=S)NCCN(C)C)cc2)n1 [Example 2d, 3-(2-dimethylaminoethyl)-1-[4-[4-[(3S)-3-methylmorpholin-4-yl]-6-(2-methylsulfonylpropan-2-yl)pyrimidin-2-yl]phenyl]thiourea]
21.5	C[C@H]1COCCN1c1cc(CS(C)(=O)=O)nc(-c2ccc(NC(=S)Nc3ccc(F)cc3)cc2)n1 [Example 1d, 3-(4-fluorophenyl)-1-[4-[4-[(3S)-3-methylmorpholin-4-yl]-6-(methylsulfonylmethyl)pyrimidin-2-yl]phenyl]thiourea]
38.4	C[C@H]1COCCN1c1cc(C(C)(C)O)nc(-c2ccc(NC(=S)NC3CC3)cc2)n1 [Example 5b, 3-cyclopropyl-1-[4-[4-(2-hydroxypropan-2-yl)-6-[(3S)-3-methylmorpholin-4-yl]pyrimidin-2-yl]phenyl]thiourea]
161	C[C@H]1COCCN1c1cc(C(C)(C)S(=O)(=O)CCCO)nc(-c2ccc(NC(=S)NC3CC3)cc2)n1 [Example 4, 3-Cyclopropyl-1-[4-[4-[2-(3-hydroxypropylsulfonyl)propan-2-yl]-6-[(3S)-3-methylmorpholin-4-yl]pyrimidin-2-yl]phenyl]thiourea]
7.17	C[C@H]1COCCN1c1cc(C(C)(C)S(=O)(=O)c2ccccc2)nc(-c2ccc(NC(=S)NC3CC3)cc2)n1 [Example 3a, 1-[4-[4-[2-(benzenesulfonyl)propan-2-yl]-6-[(3S)-3-methylmorpholin-4-yl]pyrimidin-2-yl]phenyl]-3-cyclopropylthiourea]
58.5	CCNC(=S)Nc1ccc(-c2nc(N3CCOC[C@@H]3C)cc(C(C)(C)S(=O)(=O)CCCO)n2)cc1 [Example 4c, 3-ethyl-1-[4-[4-[2-(3-hydroxypropylsulfonyl)propan-2-yl]-6-[(3S)-3-methylmorpholin-4-yl]pyrimidin-2-yl]phenyl]thiourea]
3.08	C[C@H]1COCCN1c1cc(C(C)(C)S(=O)(=O)c2ccccc2)nc(-c2ccc(NC(=S)NCCO)cc2)n1 [Example 3c, 1-[4-[4-[2-(benzenesulfonyl)propan-2-yl]-6-[(3S)-3-methylmorpholin-4-yl]pyrimidin-2-yl]phenyl]-3-(2-hydroxyethyl)thiourea]
4.77	C[C@H]1COCCN1c1cc(C(C)(C)S(C)(=O)=O)nc(-c2ccc(NC(=S)NC3CC3)cc2)n1 [Example 2, 3-Cyclopropyl-1-[4-[4-[(3S)-3-methylmorpholin-4-yl]-6-(2-methylsulfonylpropan-2-yl)pyrimidin-2-yl]phenyl]thiourea]
